Laboratory results as given in patent publication US11691970B2, “Pyrazolopyridinone compounds” (Janssen Pharmaceutica NV, priority 2017, dated 2023).
Where a name gives a salt, the structure may show the parent alone. Read-outs that look alike come from different tables or passages of the source.

Columns and labels:
[1] = system: NIH/3T3 cells transfected with control vector; assay: NIH/3T3 mock cell proliferation assay (counter assay, CellTiter Glo); format: cell-based; conditions: Mus musculus, top concentration 30 μM, counter assay for general toxicity, read-out: NIH/3T3 MOCK CTG (IC50)
Description: NIH/3T3 Mock Cell Proliferation Assay
In day 1, 90 μL of cell suspension (NIH/3T3 cells transfected with the same control vector as in the above two proliferation assays) (total 30,000 cells per well in growth medium (DMEM containing 1% Glutamax, 10% FBS and 1% Pen/Strep)) was seeded in a 96-well plate and then incubated overnight at 37° C. and 5% CO2. In day 2, 10 μL of growth medium containing 10-fold stock solution of testing compound was added into cell cultures (9 dose points with 3× serial dilution, starting with 30 μM, 0.3% DMSO final). After 72-hr incubation at 37° C. and 5% CO2, in day 5 a volume of 50 μL CellTiter Glo (CTG) reagent was added into cell-containing 96-well plate and the plate was incubated at room temperature for 10 minutes before RLUs (relative light unit) were measured on a microplate reader with luminescence detection module.

[2] = target: T1, NIH/3T3 cells overexpressing FGFR3 WT-TACC3 fusion protein (Homo sapiens, UniProt P22607); assay: NIH/3T3 FGFR3 WT-TACC3 cell proliferation assay (CellTiter Glo); format: cell-based; conditions: 72-hr incubation, top concentration 10 μM, read-out: NIH/3T3 FGFR3 WT-TACC3 CTG (IC50)
T1 construct: NIH/3T3 FGFR3 WT-TACC3 CTG (IC50); other: 72-hr incubation, CellTiter Glo, top concentration 10 μM; fused on or other part: Q9Y6A5 (Transforming acidic coiled-coil-containing protein 3)
T1 sequence (P22607 whole entry, change not shown, the tested form may be a part): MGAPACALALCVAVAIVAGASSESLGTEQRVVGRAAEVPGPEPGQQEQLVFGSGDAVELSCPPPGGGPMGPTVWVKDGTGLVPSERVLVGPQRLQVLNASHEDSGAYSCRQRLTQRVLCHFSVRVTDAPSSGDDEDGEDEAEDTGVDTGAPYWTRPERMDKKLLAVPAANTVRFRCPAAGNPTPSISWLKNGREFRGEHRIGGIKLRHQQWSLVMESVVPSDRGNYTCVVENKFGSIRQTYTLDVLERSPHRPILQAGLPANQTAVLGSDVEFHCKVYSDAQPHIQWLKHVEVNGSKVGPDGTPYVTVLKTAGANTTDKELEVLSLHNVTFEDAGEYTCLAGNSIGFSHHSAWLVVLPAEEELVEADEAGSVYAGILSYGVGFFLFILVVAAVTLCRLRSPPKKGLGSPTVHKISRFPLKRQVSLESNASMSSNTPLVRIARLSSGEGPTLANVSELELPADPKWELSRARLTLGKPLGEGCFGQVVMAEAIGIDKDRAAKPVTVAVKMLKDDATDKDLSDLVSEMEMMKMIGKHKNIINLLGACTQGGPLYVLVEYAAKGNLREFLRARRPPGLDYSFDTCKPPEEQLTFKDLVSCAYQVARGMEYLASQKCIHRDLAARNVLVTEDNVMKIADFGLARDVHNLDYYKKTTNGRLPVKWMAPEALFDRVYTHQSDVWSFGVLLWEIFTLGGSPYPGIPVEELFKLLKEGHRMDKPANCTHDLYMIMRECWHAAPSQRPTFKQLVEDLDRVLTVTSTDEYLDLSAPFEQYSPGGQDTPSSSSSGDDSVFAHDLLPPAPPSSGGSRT
Description: NIH/3T3 FGFR3 WT-TACC3 Cell Proliferation Assay
In day 1, 90 μL of cell suspension (NIH/3T3 cells overexpressing FGFR3 WT-TACC3 fusion protein) (total 30,000 cells per well in growth medium (DMEM containing 1% Glutamax, 10% FBS and 1% Pen/Strep)) was seeded in a 96-well plate and then incubated overnight at 37° C. and 5% CO2. […] After 72-hr incubation at 37° C. and 5% CO2, in day 5 a volume of 50 μL CellTiter Glo (CTG) reagent was added into cell-containing 96-well plate and the plate was incubated at room temperature for 10 minutes before RLUs (relative light unit) were measured on a microplate reader with luminescence detection module.

[3] = target: T2, human FGFR3 wild type enzyme (cytoplasmic domain) (Homo sapiens, UniProt P22607); assay: FGFR3 wild type mobility shift assay (enzymatic assay); format: biochemical; conditions: 75 μM ATP, 50 minutes at 30° C, Caliper EZ reader II
T2 construct: human FGFR3 wild type enzyme (cytoplasmic domain, from Carna Biosciences); purchased Carna Biosciences
T2 sequence (P22607 397-806 limits assumed): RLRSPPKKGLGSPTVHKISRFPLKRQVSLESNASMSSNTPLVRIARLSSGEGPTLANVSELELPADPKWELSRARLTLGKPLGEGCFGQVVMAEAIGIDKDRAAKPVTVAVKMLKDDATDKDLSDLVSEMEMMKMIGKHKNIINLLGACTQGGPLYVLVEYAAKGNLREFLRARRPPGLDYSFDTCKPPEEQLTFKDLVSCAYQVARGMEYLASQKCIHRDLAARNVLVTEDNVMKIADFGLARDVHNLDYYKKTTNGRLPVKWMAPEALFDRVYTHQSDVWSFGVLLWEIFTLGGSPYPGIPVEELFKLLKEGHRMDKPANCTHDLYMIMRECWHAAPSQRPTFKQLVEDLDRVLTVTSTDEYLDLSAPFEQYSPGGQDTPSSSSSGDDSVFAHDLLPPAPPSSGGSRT
Excerpt: FGFR3 Wild Type Mobility Shift Assay (Enzymatic Assay)

GI50 [2] [nM]	IC50 [3] [nM]	Compound	IC50 ([1]; NIH3T3, 72 h, 72-hr incubation) [nM]	IC50 ([1]; NIH3T3, 72-hr incubation) [nM]
21.5	8.17	CC(Nc1c(-c2nc3cc(C(F)(F)F)c(N4CCOCC4)cc3[nH]2)c(=O)[nH]c2cn(C)nc12)c1ncccn1 (racemic) [Compound 19, (Rac)-2-Methyl-6-(6-morpholino-5-(trifluoromethyl)-1H-benzo[d]imidazol-2-yl)-7-((1-(pyrimidin-2-yl)ethyl)amino)-2H-pyrazolo[4,3-b]pyridin-5(4H)-one]	3990	
10.5	0.399	C[C@H](Nc1c(-c2nc3ccc(N4CCO[C@@H](C(F)(F)F)C4)cc3[nH]2)c(=O)[nH]c2cn(C)nc12)c1ncccn1 (relative stereo) [Compound 7, 2-Methyl-7-(((S*)-1-(pyrimidin-2-yl)ethyl)amino)-6-(6-((R*)-2-(trifluoromethyl)-morpholino)-1H-benzo[d]imidazol-2-yl)-2H-pyrazolo[4,3-b]pyridin-5(4H)-one]	1080	
6.78	0.542	C[C@H](Nc1c(-c2nc3ccc(N4CCO[C@H](C(F)(F)F)C4)cc3[nH]2)c(=O)[nH]c2cn(C)nc12)c1ncccn1 (relative stereo) [Compound 8, 2-Methyl-7-(((S*)-1-(pyrimidin-2-yl)ethyl)amino)-6-(6-((S*)-2-(trifluoromethyl)-morpholino)-1H-benzo[d]imidazol-2-yl)-2H-pyrazolo[4,3-b]pyridin-5(4H)-one]	444	
	88.3	CC[C@H](Nc1c(-c2nc3ccc(N4CCOCC4)cc3[nH]2)c(=O)[nH]c2cn(CC)nc12)c1ncccn1 (single isomer, unassigned) [Compound 3, (S*)-2-ethyl-6-(6-morpholino-1H-benzo[d]imidazol-2-yl)-7-((1-(pyrimidin-2-yl)propyl)-amino)-2H-pyrazolo[4,3-b]pyridin-5(47f)-one]		
26.1	3.77	CCn1cc2[nH]c(=O)c(-c3nc4ccc(N5CCOCC5)cc4[nH]3)c(NC(C)c3cocn3)c2n1 (single isomer, unassigned) [Compound 4A, (S*)-2-ethyl-6-(6-morpholino-1H-benzo[d]imidazol-2-yl)-7-((1-(oxazol-4-yl)ethyl)amino)-2H-pyrazolo[4,3-b]pyridin-5(4H)-one]	288	
	657	CCn1cc2[nH]c(=O)c(-c3nc4ccc(N5CCOCC5)cc4[nH]3)c(NC(C)c3cocn3)c2n1 (single isomer, unassigned) [Compound 4B, (R*)-2-ethyl-6-(6-morpholino-1H-benzo[d]imidazol-2-yl)-7-((1-(oxazol-4-yl)ethyl)-amino)-2H-pyrazolo[4,3-b]pyridin-5(4H)-one]		
17.1	0.618	CC(Nc1c(-c2nc3cc(F)c(N4CCOCC4)cc3[nH]2)c(=O)[nH]c2cn(C)nc12)c1ncccn1 (single isomer, unassigned) [Compound 9, (S*)-6-(5-Fluoro-6-morpholino-1H-benzo[d]imidazol-2-yl)-2-methyl-7-((1-(pyrimidin-2-yl)ethyl)amino)-2H-pyrazolo[4,3-b]pyridin-5(4H)-one]	691	
		CC(Nc1c(-c2nc3cc(C(F)(F)F)c(N4CCOCC4)cc3[nH]2)c(=O)[nH]c2cn(C)nc12)c1cocn1 (single isomer, unassigned) [Compound 10, (S*)-2-methyl-6-(6-morpholino-5-(trifluoromethyl)-1H-benzo[d]imidazol-2-yl)-7-((1-(oxazol-4-yl)ethyl)amino)-2H-pyrazolo[4,3-b]pyridin-5(4H)-one]		18400
		CC(Nc1c(-c2nc3ccc(N4C[C@@H](C)O[C@H](C)C4)cc3[nH]2)c(=O)[nH]c2cn(C)nc12)c1ncccn1 (single isomer, unassigned) [Compound 12, 6-(6-((2R,6R)-2,6-dimethylmorpholino)-1H-benzo[d]imidazol-2-yl)-2-methyl-7-(((S*)-1-(pyrimidin-2-yl)ethyl)amino)-2H-pyrazolo[4,3-b]pyridin-5(4H)-one]		454
	38.1	CC(Nc1c(-c2nc3ccc(N4CCCCC4)c(F)c3[nH]2)c(=O)[nH]c2cn(C)nc12)c1ncccn1 (single isomer, unassigned) [Compound 16, (R*)-6-(7-fluoro-6-(piperidin-1-yl)-1H-benzo[d]imidazol-2-yl)-2-methyl-7-((1-(pyrimidin-2-yl)ethyl)amino)-2H-pyrazolo[4,3-b]pyridin-5(4H)-one]		
	46.5	C[C@H](Nc1c(-c2nc3c(F)cc(N4CCOCC4)c(F)c3[nH]2)c(=O)[nH]c2cn(C)nc12)c1ncccn1 (single isomer, unassigned) [Compound 17, (S*)-6-(4,7-difluoro-6-morpholino-1H-benzo[d]imidazol-2-yl)-2-methyl-7-((1-(pyrimidin-2-yl)ethyl)amino)-2H-pyrazolo[4,3-b]130pyridine-5(4H)-one]		
	1240	CC(Nc1c(-c2nc3cc(C(F)(F)F)c(N4CCOCC4)cc3[nH]2)c(=O)[nH]c2cn(C)nc12)c1ncccn1 (single isomer, unassigned) [Compound 20, (S*)2-Methyl-6-(6-morpholino-5-(trifluoromethyl)-1H-benzo[d]imidazol-2-yl)-7-((1-(pyrimidin-2-yl)ethyl)amino)-2H-pyrazolo[4,3-b]pyridin-5(4H)-one]		
	469	COCC(Nc1c(-c2nc3c(F)cc(N4CCOCC4)cc3[nH]2)c(=O)[nH]c2cn(C)nc12)c1ncccn1 (single isomer, unassigned) [Compound 30, (R*)-6-(4-fluoro-6-morpholino-1H-benzo[d]imidazol-2-yl)-7-((2-methoxy-1-(pyrimidin-2-yl)ethyl)amino)-2-methyl-2H-pyrazolo[4,3-b]pyridin-5(4H)-one]		
	120	C[C@H](Nc1c(-c2nc3ccc(N4CCN(C)CC4)cc3[nH]2)c(=O)[nH]c2cn(C)nc12)c1ncccc1C(F)(F)F (single isomer, unassigned) [Compound 31, (S*)-2-methyl-6-(6-(4-methylpiperazin-1-yl)-1H-benzo[d]imidazol-2-yl)-7-((1-(3-(trifluoromethyl)pyridin-2-yl)ethyl)amino)-2H-pyrazolo[4,3-b]pyridin-5(4H)-one 0.3 formate]		
	39.2	CC(Nc1c(-c2nc3ccc(N4CCCCC4)cc3[nH]2)c(=O)[nH]c2cn(C)nc12)c1ncccn1 (single isomer, unassigned) [Compound 35, (R*)-2-methyl-6-(6-(piperidin-1-yl)-1H-benzo[d]imidazol-2-yl)-7-((1-(pyrimidin-2-yl)-ethyl)amino)-2H-pyrazolo[4,3-b]pyridin-5(4H)-one]		
	71.7	CC(Nc1c(-c2nc3ccc(OC4CCOCC4)cc3[nH]2)c(=O)[nH]c2cn(C)nc12)c1cocn1 (single isomer, unassigned) [Compound 37, (R*)-2-methyl-7-((1-(oxazol-4-yl)ethyl)amino)-6-(6-((tetrahydro-2H-pyran-4-yl)oxy)-1H-benzo[d]imidazol-2-yl)-2H-pyrazolo[4,3-b]pyridin-5(4H)-one]		
	531	CCC(Nc1c(-c2nc3ccc(N4CCOCC4)cc3[nH]2)c(=O)[nH]c2cn(C)nc12)c1ncccn1 (single isomer, unassigned) [Compound 40, (R*)-2-methyl-6-(6-morpholino-1H-benzo[d]imidazol-2-yl)-7-((1-(pyrimidin-2-yl)-propyl)amino)-2H-pyrazolo[4,3-b]pyridin-5(4H)-one]		
	95.7	COc1cc(N2CCOCC2)cc2[nH]c(-c3c(NC(C)c4ncccn4)c4nn(C)cc4[nH]c3=O)nc12 (single isomer, unassigned) [Compound 50, (R*)-6-(4-methoxy-6-morpholino-1H-benzo[d]imidazol-2-yl)-2-methyl-7-((1-(pyrimidin-2-yl)ethyl)amino)-2,4-dihydro-5H-pyrazolo[4,3-b]pyridin-5-one]		
	811	Cc1cc2nc(-c3c(N[C@@H](C)c4cocn4)c4nn(C)cc4[nH]c3=O)[nH]c2cc1N1CCOCC1 [Compound 55, (S)-2-methyl-6-(5-methyl-6-morpholino-1H-benzo[d]imidazol-2-yl)-7-((1-(oxazol-4-yl)-ethyl)amino)-2H-pyrazolo[4,3-b]pyridin-5(4H)-one]		
	156	C[C@H](Nc1c(-c2nc3cnc(N4CCOCC4)cc3[nH]2)c(=O)[nH]c2cn(C)nc12)c1cocn1 [Compound 56, (S)-2-methyl-6-(6-morpholino-1H-imidazo[4,5-c]pyridin-2-yl)-7-((1-(oxazol-4-yl)ethyl)-amino)-2,4-dihydro-5H-pyrazolo[4,3-b]pyridin-5-one]		
